How the values were obtained:
[1] = biological target: Leucyl-cystinyl aminopeptidase (Homo sapiens) (UniProt Q9UIQ6); test: Inhibition of IRAP (unknown origin) using L-AMC as substrate
[2] = biological target: Insulin-regulated aminopeptidase (Homo sapiens); test: Inhibition of human recombinant IRAP expressed in baculovirus infected Sf9 cells using L-AMC as substrate incubated for 5 to 10 mins by Michaelis-Menten analysis
[3] = biological target: Leucyl-cystinyl aminopeptidase (Homo sapiens) (UniProt Q9UIQ6); test: Inhibition of IRAP (unknown origin) using L-pNA as substrate

Chain of Leucyl-cystinyl aminopeptidase (Homo sapiens) (Q9UIQ6 whole entry, looked up): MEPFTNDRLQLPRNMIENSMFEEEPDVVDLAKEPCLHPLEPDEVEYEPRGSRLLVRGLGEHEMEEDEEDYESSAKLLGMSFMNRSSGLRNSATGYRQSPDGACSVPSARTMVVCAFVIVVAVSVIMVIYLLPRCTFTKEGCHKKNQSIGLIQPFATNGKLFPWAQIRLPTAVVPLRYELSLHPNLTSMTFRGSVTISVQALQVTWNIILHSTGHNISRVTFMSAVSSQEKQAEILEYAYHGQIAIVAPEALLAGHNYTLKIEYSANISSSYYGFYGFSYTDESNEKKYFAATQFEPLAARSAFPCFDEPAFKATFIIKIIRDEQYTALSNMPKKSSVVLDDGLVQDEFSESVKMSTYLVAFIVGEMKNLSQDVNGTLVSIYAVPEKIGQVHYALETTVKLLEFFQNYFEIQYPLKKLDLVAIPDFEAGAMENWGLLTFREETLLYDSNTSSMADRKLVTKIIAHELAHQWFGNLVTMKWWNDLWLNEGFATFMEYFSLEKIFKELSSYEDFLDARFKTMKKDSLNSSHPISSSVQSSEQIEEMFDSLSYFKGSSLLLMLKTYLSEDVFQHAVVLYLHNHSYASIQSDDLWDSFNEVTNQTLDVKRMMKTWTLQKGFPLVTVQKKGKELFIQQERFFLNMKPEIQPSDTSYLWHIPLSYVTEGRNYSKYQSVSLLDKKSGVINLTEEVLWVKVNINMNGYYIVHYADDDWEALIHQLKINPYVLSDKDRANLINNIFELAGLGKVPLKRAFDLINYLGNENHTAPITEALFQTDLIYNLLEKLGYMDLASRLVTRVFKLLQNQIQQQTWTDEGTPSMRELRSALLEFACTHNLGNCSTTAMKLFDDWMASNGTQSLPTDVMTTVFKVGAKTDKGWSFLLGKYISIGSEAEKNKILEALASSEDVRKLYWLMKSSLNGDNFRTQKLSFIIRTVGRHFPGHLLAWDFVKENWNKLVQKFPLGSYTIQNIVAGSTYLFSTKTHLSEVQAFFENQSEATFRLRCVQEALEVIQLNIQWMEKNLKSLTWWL

| Compound | IC50 [1] | also measured |
| --- | --- | --- |
| NC1CCc2c(Br)ccc(-c3ccccc3)c2CC1=O (stereo not drawn) | – | IC50 [2]: 120 nM |
| NC1CCc2c(Br)ccc(Br)c2CC1=O (stereo not drawn) | – | IC50 [2]: 34 nM |
| COc1ccc(C(=O)O)cc1S(=O)(=O)N(C)c1cc(C(F)(F)F)ccc1N1CCCCC1 | 160000 nM | – |
| COc1ccc(C(=O)O)cc1S(=O)(=O)Nc1cc(C(F)(F)F)ccc1N1CCCCC1 | > 200000 nM | – |
| CC(C)C[C@@H](CP(=O)(O)[C@@H](N)CCc1ccccc1)C(N)=O | 344 nM | – |
| COc1ccc(C(=O)O)cc1S(=O)(=O)N(C)c1cc(C(F)(F)F)ccc1N1CCN(C)CC1 | > 200000 nM | – |
| O=C(NO)[C@H](Cc1ccc(Oc2ccccc2)cc1)n1cc(CNS(=O)(=O)c2ccc(-c3ccccn3)s2)nn1 [US20240101542, Compound 23] | 560 nM | – |
| COc1ccc(C[C@@H](C(=O)NO)n2cc(CNS(=O)(=O)c3ccc(-c4ccccc4)s3)nn2)cc1 [US20240101542, Compound 24] | 383 nM | – |
| O=S(=O)(Nc1ccccc1)c1ccccc1 [phenyl(phenylsulfonyl)amine] | – | IC50 [3]: 2100 nM |

Further lines, with some results ahead:

| IC50 [1] | Compound | also measured |
| --- | --- | --- |
| 218 nM | CC(C)C[C@H](CP(=O)(O)[C@@H](N)CCc1ccccc1)C(N)=O | – |
| 2 nM | C#C[C@H](CP(=O)(O)[C@@H](N)CCc1ccccc1)C(=O)N[C@@H](Cc1ccccc1)C(N)=O | – |
| 186 nM | COc1ccc(C[C@@H](C(=O)NO)n2cc(CNS(=O)(=O)c3ccc(-c4ccccn4)s3)nn2)cc1 [US20240101542, Compound 25] | – |
| 84 nM | O=C(C[C@H](Cc1ccc(O)cc1)n1nncc1CNS(=O)(=O)c1ccc(-c2ccccn2)s1)NO [US20240101542, Compound 33] | – |

— BindingDB's records for PubMed 39011823 (University of Lille)
